Experimental data: ChEMBL document CHEMBL1124341, “1',2'-seco-dideoxynucleosides as potential anti-HIV agents” (J Med Chem, 1989)

Key:
[1] = tested on: ATH-8 cell line; experiment: Tested against ATH8 cells infected with HIV (2 x 10 e3 virus partials per cell) at concentrations ranging from 1 to 100 µM; No protection; format: functional, cell-based; details: Homo sapiens
[2] = tested on: ATH-8 cell line; experiment: Tested against ATH8 cells infected with HIV (2 x 10 e3 virus partials per cell) at concentration of 20 µM; Completely protected; format: functional, cell-based; details: Homo sapiens

Structure (SMILES) | Activity [1] | Activity [2]
CCC(CO)OCn1cnc2c(N)ncnc21 (stereo not given) | No protection | –
Nc1ncnc2c1ncn2[C@H]1CC[C@@H](CO)O1 | – | Completely protected
CCC(CO)OCn1cnc2c(O)ncnc21 (stereo not given) | No protection | –
CCC(CO)OCn1cnc2c(O)nc(N)nc21 (stereo not given) | No protection | –
CCC(CO)OCn1ccc(N)nc1=O (stereo not given) | No protection | –
